Results: patent US5102894A, “Substituted piperidine compounds and their use” (Novo Nordisk A/S, priority 1989, dated 1992)
Structures can show the parent of a compound that is named as a salt.

Tested on: voltage operated calcium channels (VOC)
Assay: inhibition of depolarization-induced 45Ca uptake into brain synaptosomes (crude P2 fraction)
Assay type: biochemical, male Wistar rat
Conditions: rat cerebral cortex synaptosomes (P2), KCl-depolarized samples, 15 s uptake at 37° C., pH 7.4; triplicate; from dose response curves
Description: The pharmacological properties of the compounds of the invention can be illustrated by determining their capability to inhibit calcium uptake into brain synaptosomes.
Depolarization of neuronal membranes leads to an opening of socalled `voltage operated calcium channels` (VOC) in the membranes which allows a massive influx of calcium from the extracellular space. A crude synaptosomal preparation (socalled P2 fraction) contains small vesicles surrounded by neuronal membrane and it is possible in such a preparation to study a depolarization-induced opening of VOC.
A male Wistar rat is decapitated and the cerebral cortex removed and homogenized in 10 ml of ice-cold 0.32 M sucrose using a glass homogenizer with a teflon pestle. All subsequent steps for isolation of synaptosomes are done at 0°-4° C. The homogenate is centrifuged at 1000×g for 10 min and the resulting supernatant is re-centrifuged at 18000×g for 20 min. This pellet (P2) is resuspended in 0.32 M sucrose (5 ml per g of original tissue) with a teflon pestle.
The tubes are pre- incubated for 30 min on ice and then for 6 min at 37° C. in a water bath.
The incubation is continued for 15 s.
The amount of radioactivity on the filter disc is determined by liquid scintillation spectrometry.
Test substances are dissolved in 10 ml of 48% ethanol at a concentration of 0.44 mg/ml. Dilutions are made in 48% ethanol to give final concentrations of 0.1, 0.3, 1, 3 and 10 μg/ml. Experiments are performed in triplicate. Controls for depolarized and nondepolarized samples are included in the assay and test substances are only tested in depolarized samples.
The IC50 value is estimated from dose response curves.

IC50 (concentration of test substance which inhibits 50% of stimulated uptake of 45Ca) [µg/mL]	Structure (SMILES)
7.2	CCCCCN1CC[C@@H](c2cccs2)[C@H](COc2ccccc2C#N)C1 (relative stereo) [Compound 15, (+-) trans 3-(2-cyanophenoxymethyl)-1-pentyl-4-(2-thienyl)piperidine, HCl]
3.6	CCCCCN1CC[C@@H](c2ccsc2)[C@H](COc2ccc(Cl)cc2)C1 (relative stereo) [Compound 37, (+-) trans 3-(4-chlorophenoxymethyl)-1-pentyl-4-(3-thienyl)piperidine, HCl]
10	CCCCCN1CC[C@@H](c2ccsc2)[C@H](COc2ccc(OC(F)(F)F)cc2)C1 (relative stereo) [Compound 43, (+-) trans 3-(4-trifluoromethoxyphenoxymethyl)-1-pentyl-4-(3-thienyl)piperidine, HCl]
4.9	CCCCCN1CC[C@@H](c2ccsc2)[C@H](COc2ccc3c(c2)OCO3)C1 (relative stereo) [Compound 30, (+-) trans 3-(3,4-methylenedioxyphenoxymethyl)-1-pentyl-4-(3-thienyl)piperidine, HCl]
18	CCCCN1CC[C@@H](c2ccc(C)o2)[C@H](COc2cccc(C(F)(F)F)c2)C1 (relative stereo) [Compound 12, HCl]
5.8	CCC(C)CN1CC[C@@H](c2ccsc2)[C@H](COc2cccc(C(F)(F)F)c2)C1 (relative stereo) [Compound 47, (+-) trans(2-methylbutyl)-4-(3-thienyl)-3-(3-trifluoromethylphenoxymethyl)piperidine, HCl]
30	CCCCCN1CC[C@@H](c2cccs2)[C@H](COc2cccc(CN)c2)C1 (relative stereo) [Compound 28, (+-) trans 3-(3-aminomethylphenoxymethyl)-1-pentyl-4-(2-thienyl)piperidine,HCl]
13	CCCCN1CC[C@@H](c2cccs2)[C@H](COc2ccccc2OC(C)C)C1 (relative stereo) [Compound 27, (+-) trans 1-butyl-3-(2-isopropoxyphenoxymethyl)-4-(2-thienyl)piperidine, oxalate]
2.7	CCCCCN1CC[C@@H](c2ccsc2)[C@H](COc2ccc(C#N)cc2)C1 (relative stereo) [Compound 39, (+-) trans 3-(4-cyanophenoxymethyl)-1-pentyl-4-(3-thienyl)piperidine, HCl]
2.8	FC(F)(F)c1cccc(OC[C@@H]2CNCC[C@H]2c2ccsc2)c1 (relative stereo) [Compound 44, (+-) trans 4-(thienyl)-3-(3-trifluoromethylphenoxymethyl)piperidine, HCl]
9.1	CCCCN1CC[C@@H](c2cccs2)[C@H](COc2cccc(OC)c2)C1 (relative stereo) [Compound 25, (+-) trans 1-butyl-4-(2-thienyl)-3-(3-methoxyphenoxymethyl)piperidine, HCl]
4.7	CCCCCN1CC[C@@H](c2ccsc2)[C@H](COc2cccc(C(F)(F)F)c2)C1 (relative stereo) [Compound 31, (+-) trans 1-pentyl-4-(3-thienyl)-3-(3-trifluoromethylphenoxymethyl)piperidine, oxalate]

Tested on: peripheral calcium uptake, e.g. in blood vessels and the heart
Assay: not given
Conditions: cited from earlier work

Structure (SMILES)	activity against peripheral calcium uptake
COc1ccc([C@@H]2Sc3ccccc3N(CCN(C)C)C(=O)[C@@H]2OC(C)=O)cc1 [Diltiazem]	have activity
COC(=O)C1=C(C)NC(C)=C(C(=O)OC)C1c1ccccc1[N+](=O)[O-] [Nifedipine]	have activity
COc1ccc(CCN(C)CCCC(C#N)(c2ccc(OC)c(OC)c2)C(C)C)cc1OC (stereo not drawn) [Verapamil]	have activity
